Results from patent US7635716B2, “Substituted cyclopentanes or cyclopentanones as therapeutic agents” (Allergan, Inc., priority 2005, dated 2009).
Read-outs that look alike come from different tables or passages of the source. Values belong to the compound of their own block, whether it stands above or below them.

Legend:
hEP3A/Gqi5 = target: T1, hEP3A/Gqi5 (Homo sapiens, UniProt P43115); assay: FLIPR calcium signal, HEK-293(EBNA) cells; format: cell-based
T1 construct: expressed in transfected cells; host or cells: HEK-293(EBNA) cells
T1 sequence (P43115 1-390): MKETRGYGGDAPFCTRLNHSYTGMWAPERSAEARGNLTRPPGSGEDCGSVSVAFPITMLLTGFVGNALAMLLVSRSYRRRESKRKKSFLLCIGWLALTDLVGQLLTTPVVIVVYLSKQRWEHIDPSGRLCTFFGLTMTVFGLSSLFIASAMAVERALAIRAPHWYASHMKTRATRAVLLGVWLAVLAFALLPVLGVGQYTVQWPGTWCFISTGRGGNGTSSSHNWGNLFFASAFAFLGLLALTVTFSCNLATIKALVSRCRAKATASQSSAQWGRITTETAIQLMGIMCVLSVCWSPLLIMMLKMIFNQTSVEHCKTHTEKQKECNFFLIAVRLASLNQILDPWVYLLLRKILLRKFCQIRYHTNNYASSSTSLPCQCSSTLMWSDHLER
Experimental: (§1) HEK-293(EBNA) cells, stably expressing one type or subtype of recombinant human prostaglandin receptors (prostaglandin receptors expressed: hDP/Gqs5; hEP1; hEP2/Gqs5; hEP3A/Gqi5; hEP4/Gqs5; hFP; hIP; hTP), were cultured in 100 mm culture dishes in high-glucose DMEM medium containing 10% fetal bovine serum, 2 mM 1-glutamine, 250 μg/ml geneticin (G418) and 200 μg/ml hygromycin B as selection markers, and 100 units/ml penicillin G, 100 μg/ml streptomycin and 0.25 μg/ml amphotericin B.
(§2) Cells were seeded at a density of 5×10^4 cells per well in Biocoat® Poly-D-lysine-coated black-wall, clear-bottom 96-well plates (Becton-Dickinson) and allowed to attach overnight in an incubator at 37° C. Cells were then washed two times with HBSS-HEPES buffer (Hanks Balanced Salt Solution without bicarbonate and phenol red, 20 mM HEPES, pH 7.4) using a Denley Cellwash plate washer (Labsystems). After 45 minutes of dye-loading in the dark, using the calcium-sensitive dye Fluo-4 AM at a final concentration of 2 μM, plates were washed four times with HBSS-HEPES buffer to remove excess dye leaving 100 μl in each well. Plates were re-equilibrated to 37° C. for a few minutes.
(§3) Cells were excited with an Argon laser at 488 nm, and emission was measured through a 510-570 nm bandwidth emission filter (FLIPR™, Molecular Devices, Sunnyvale, Calif.). Drug solution was added in a 50 μl volume to each well to give the desired final concentration. The peak increase in fluorescence intensity was recorded for each well. On each plate, four wells each served as negative (HBSS-HEPES buffer) and positive controls (standard agonists: BW245C (hDP); PGE2 (hEP1; hEP2/Gqs5; hEP3A/Gqi5; hEP4/Gqs5); PGF2. (hFP); carbacyclin (hIP); U-46619 (hTP), depending on receptor). The peak fluorescence change in each drug-containing well was then expressed relative to the controls.
(§4) Compounds were tested in a high-throughput (HTS) or concentration-response (CoRe) format. In the HTS format, forty-four compounds per plate were examined in duplicates at a concentration of 10^−5 M. To generate concentration-response curves, four compounds per plate were tested in duplicates in a concentration range between 10^−5 and 10^−11 M. The duplicate values were averaged. In either, HTS or CoRe format each compound was tested on at least 3 separate plates using cells from different passages to give an n≧3.

hDP/Gqs5 = target: T2, hDP/Gqs5 (Homo sapiens, UniProt Q13258); assay: FLIPR calcium signal, HEK-293(EBNA) cells; format: cell-based
T2 construct: expressed in transfected cells; host or cells: HEK-293(EBNA) cells
T2 sequence (Q13258 1-359): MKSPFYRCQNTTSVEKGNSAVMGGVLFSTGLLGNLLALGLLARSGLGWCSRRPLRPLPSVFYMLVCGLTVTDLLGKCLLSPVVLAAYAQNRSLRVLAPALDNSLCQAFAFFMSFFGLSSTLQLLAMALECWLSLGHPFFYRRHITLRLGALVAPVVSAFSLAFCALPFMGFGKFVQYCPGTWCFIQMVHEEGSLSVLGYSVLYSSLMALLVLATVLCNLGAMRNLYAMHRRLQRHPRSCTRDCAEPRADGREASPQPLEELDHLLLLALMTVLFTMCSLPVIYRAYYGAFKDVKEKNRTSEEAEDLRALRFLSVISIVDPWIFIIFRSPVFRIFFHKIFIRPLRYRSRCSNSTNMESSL
Experimental: as §1, §2, §3, §4

hEP2/Gqs5 = target: T3, hEP2/Gqs5 (Homo sapiens, UniProt P43116); assay: FLIPR calcium signal, HEK-293(EBNA) cells; format: cell-based; details: Table 1, first part; triplicate; read-out: functional data (EC50) hEP2
T3 construct: expressed in transfected cells; host or cells: HEK-293(EBNA) cells
Experimental: as §1, §2, §3, §4

hTP = target: T4, hTP (Homo sapiens, UniProt P21731); assay: FLIPR calcium signal, HEK-293(EBNA) cells; format: cell-based
T4 construct: expressed in transfected cells; host or cells: HEK-293(EBNA) cells
T4 sequence (P21731 1-343): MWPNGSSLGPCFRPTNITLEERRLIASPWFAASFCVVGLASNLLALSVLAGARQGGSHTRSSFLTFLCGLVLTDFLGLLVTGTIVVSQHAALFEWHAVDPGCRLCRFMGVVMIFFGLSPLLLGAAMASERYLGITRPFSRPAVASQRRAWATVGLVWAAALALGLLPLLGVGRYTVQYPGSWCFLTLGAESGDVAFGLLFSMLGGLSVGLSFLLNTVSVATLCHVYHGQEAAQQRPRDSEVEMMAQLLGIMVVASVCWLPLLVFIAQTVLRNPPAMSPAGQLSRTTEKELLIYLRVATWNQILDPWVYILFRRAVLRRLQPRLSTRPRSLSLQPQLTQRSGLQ
Experimental: as §1, §2, §3, §4

hFP = target: T5, hFP (Homo sapiens, UniProt P43088); assay: FLIPR calcium signal, HEK-293(EBNA) cells; format: cell-based
T5 construct: expressed in transfected cells; host or cells: HEK-293(EBNA) cells
Experimental: as §1, §2, §3, §4

hEP4/Gqs5 = target: T6, hEP4/Gqs5 (Homo sapiens, UniProt P35408); assay: FLIPR calcium signal, HEK-293(EBNA) cells; format: cell-based
T6 construct: expressed in transfected cells; host or cells: HEK-293(EBNA) cells
Experimental: as §1, §2, §3, §4

[1] = system: laser-induced hypertensive monkeys; assay: Intraocular pressure (IOP) in laser-induced hypertensive monkeys; format: in vivo, monkey; details: Primates, topical, one single day dose, read-out: maximum IOP decrease from baseline (percent)
Experimental: (§5) (Z)-7-[(1R,2S,3R,5R)-5-Chloro-2-(3,5-dichloro-phenoxymethyl)-3-hydroxy-cyclopentyl]-hept-5-enoic acid (15b) was tested at multiple concentrations in normotensive dogs, dosing once daily for 5 days. At 0.05%, the maximum IOP decrease from baseline was 4.3 mmHg (30%) at 6 h; the maximum OSH score was 0.6 at 6 h. […] This compound was also tested in laser-induced hypertensive monkeys, using one single day dose. At 0.1%, the maximum IOP decrease from baseline was 6 mmHg (19%) at 6 h.
(§6) (Z)-7-[(1R,2S,3R,5R)-5-Chloro-2-(3,5-dichloro-phenoxymethyl)-3-hydroxy-cyclopentyl]-hept-5-enoic acid isopropyl ester (42b) was tested in normotensive dogs at 0.05%, dosing once daily for 5 days. The maximum intraocular pressure (IOP) decrease from baseline was 3 mmHg (19%) at 6 h; the maximum ocular surface hyperemia (OSH) score was 0.6 at 74 h. This compound was also tested in laser-induced hypertensive monkeys, using one single day dose. At 0.01%, the maximum IOP decrease from baseline was 6 mmHg (16%) at 6 h.

normotensive dogs [2] = assay: Intraocular pressure (IOP) in normotensive dogs; format: in vivo, dog; details: Canis lupus familiaris, topical, 120 h, dosing once daily for 5 days, read-out: maximum IOP decrease from baseline (percent)
Experimental: as §5, §6

normotensive dogs [3] = assay: Ocular surface hyperemia (OSH) in normotensive dogs; format: in vivo, dog; parameters: maximum OSH score: scale not given here; details: dosing once daily for 5 days
Experimental: as §5, §6

normotensive dogs [4] = assay: Intraocular pressure (IOP) in normotensive dogs; format: in vivo, dog; details: Canis lupus familiaris, topical, 120 h, dosing once daily for 5 days, read-out: maximum IOP decrease from baseline (percent); remark: listed apart in the source

T5 sequence (P43088 whole entry): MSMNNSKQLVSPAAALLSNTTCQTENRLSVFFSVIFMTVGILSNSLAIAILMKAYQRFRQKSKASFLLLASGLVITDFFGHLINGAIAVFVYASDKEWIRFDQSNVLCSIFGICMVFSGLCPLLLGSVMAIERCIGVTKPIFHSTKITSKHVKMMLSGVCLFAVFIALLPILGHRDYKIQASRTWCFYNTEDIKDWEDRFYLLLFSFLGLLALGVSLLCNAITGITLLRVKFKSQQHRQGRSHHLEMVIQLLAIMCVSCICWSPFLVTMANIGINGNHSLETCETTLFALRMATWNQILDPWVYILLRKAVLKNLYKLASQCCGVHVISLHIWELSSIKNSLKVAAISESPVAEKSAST
T6 sequence (P35408 whole entry): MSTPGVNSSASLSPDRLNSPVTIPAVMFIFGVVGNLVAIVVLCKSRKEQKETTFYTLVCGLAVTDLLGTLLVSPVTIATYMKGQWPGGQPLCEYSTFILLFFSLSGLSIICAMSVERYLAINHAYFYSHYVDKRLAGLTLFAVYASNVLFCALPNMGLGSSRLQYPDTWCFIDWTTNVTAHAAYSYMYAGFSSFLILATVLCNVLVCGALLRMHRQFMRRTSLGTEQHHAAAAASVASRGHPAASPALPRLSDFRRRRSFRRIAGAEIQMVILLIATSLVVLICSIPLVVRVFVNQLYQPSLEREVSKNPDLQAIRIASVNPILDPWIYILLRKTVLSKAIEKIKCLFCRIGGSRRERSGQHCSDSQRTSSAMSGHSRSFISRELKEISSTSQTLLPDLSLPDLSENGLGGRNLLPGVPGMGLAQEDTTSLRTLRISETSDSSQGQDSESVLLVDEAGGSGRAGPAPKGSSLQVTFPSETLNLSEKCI
T3 sequence (P43116 whole entry): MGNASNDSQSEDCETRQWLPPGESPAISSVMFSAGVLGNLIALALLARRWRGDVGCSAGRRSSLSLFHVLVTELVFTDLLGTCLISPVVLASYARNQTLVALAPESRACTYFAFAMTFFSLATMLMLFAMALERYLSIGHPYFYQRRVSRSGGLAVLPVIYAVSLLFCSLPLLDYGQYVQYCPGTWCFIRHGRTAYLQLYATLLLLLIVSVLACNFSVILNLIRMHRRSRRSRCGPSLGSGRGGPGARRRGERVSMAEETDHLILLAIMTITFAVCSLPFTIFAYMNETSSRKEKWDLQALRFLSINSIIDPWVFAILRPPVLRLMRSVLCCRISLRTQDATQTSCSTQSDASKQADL

EC50 (hEP3A/Gqi5; Table 1, first part, data represents a single experiment, read-out: functional data (EC50) hEP3A*): 9.87 µM
EC50 (hEP3A/Gqi5; Table 1, second part, quantity not given, values match functional data (EC50) of first part, read-out: Other Receptors hEP3): 9.87 µM
EC50 (hDP/Gqs5; Table 1, first part, triplicate, read-out: functional data (EC50) hDP): > 10 µM
EC50 (hDP/Gqs5; Table 1, second part, quantity not given, values match functional data (EC50) of first part, read-out: Other Receptors hDP): > 10 µM
EC50 (hEP2/Gqs5): 616 nM
EC50 (hTP; Table 1, first part, triplicate, read-out: functional data (EC50) hTP): > 10 µM
EC50 (hTP; Table 1, second part, quantity not given, values match functional data (EC50) of first part, read-out: Other Receptors hTP): > 10 µM
EC50 (hFP; Table 1, first part, triplicate, read-out: functional data (EC50) hFP): > 10 µM
EC50 (hFP; Table 1, second part, quantity not given, values match functional data (EC50) of first part, read-out: Other Receptors hFP): > 10 µM
EC50 (hEP4/Gqs5; Table 1, first part, triplicate, read-out: functional data (EC50) hEP4): > 10 µM
EC50 (hEP4/Gqs5; Table 1, second part, read-out: hEP4 flipr EC50): > 10 µM
SMILES: COC(=O)CCC/C=C\C[C@@H]1[C@@H](COc2cc(Cl)cc(Cl)c2)[C@H](O)C[C@H]1Cl [Example 11, (Z)-7-[(1R,2S,3R,5R)-5-Chloro-2-(3,5-dichloro-phenoxymethyl)-3-hydroxy-cyclopentyl]-hept-5-enoic acid methyl ester]

maximum OSH score (normotensive dogs [3]; 0.05%): 0.6
time of maximum OSH score (normotensive dogs [3]; 0.05%): 74 h
SMILES: CC(C)OC(=O)CCC/C=C\C[C@@H]1[C@@H](COc2cc(Cl)cc(Cl)c2)[C@H](O)C[C@H]1Cl [Example 67, (Z)-7-[(1R,2S,3R,5R)-5-Chloro-2-(3,5-dichloro-phenoxymethyl)-3-hydroxy-cyclopentyl]-hept-5-enoic acid isopropyl ester]
inhibition in vivo at 0.01 % ([1]; 0.01%): 16%
inhibition in vivo at 0.05 % (normotensive dogs [2]; 0.05%): 19%

maximum OSH score (normotensive dogs [3]; 0.03%): 0.7
time of maximum OSH score (normotensive dogs [3]; 0.03%): 78 h
SMILES: CC(C)OC(=O)CCC/C=C\C[C@@H]1[C@@H](COc2cc(C(F)(F)F)cc(C(F)(F)F)c2)[C@H](O)C[C@H]1Cl [Example 68, (Z)-7-[(1R,2S,3R,5R)-2-(3,5-Bis-trifluoromethyl-phenoxymethyl)-5-chloro-3-hydroxy-cyclopentyl]-hept-5-enoic acid isopropyl ester]
inhibition in vivo at 0.03 % ([1]; 0.03%): 11%
inhibition in vivo at 0.03 % (normotensive dogs [4]): 14%

maximum OSH score (normotensive dogs [3]; 0.1%): 0.6
time of maximum OSH score (normotensive dogs [3]; 0.1%): 50 h
SMILES: CC(C)OC(=O)CCC/C=C\C[C@@H]1[C@@H](COc2cccc(C(F)(F)F)c2)[C@H](O)C[C@H]1Cl [Example 69, (Z)-7-[(1R,2S,3R,5R)-5-Chloro-3-hydroxy-2-(3-trifluoromethyl-phenoxymethyl)-cyclopentyl]-hept-5-enoic acid isopropyl ester]
inhibition in vivo at 0.1 % [1]: 14%
inhibition in vivo at 0.1 % (normotensive dogs [2]): 19%

maximum OSH score (normotensive dogs [3]; 0.1%): 0.9
time of maximum OSH score (normotensive dogs [3]; 0.1%): 74 h
SMILES: Cc1cc(C)cc(OC[C@@H]2[C@@H](C/C=C\CCCC(=O)OC(C)C)[C@H](Cl)C[C@H]2O)c1 [Example 70, (Z)-7-[(1R,2S,3R,5R)-5-Chloro-2-(3,5-dimethyl-phenoxymethyl)-3-hydroxy-cyclopentyl]-hept-5-enoic acid isopropyl ester]
inhibition in vivo at 0.1 % [1]: 23%
inhibition in vivo at 0.1 % (normotensive dogs [2]): 30%

maximum OSH score (normotensive dogs [3]; 0.1%): 0.6
time of maximum OSH score (normotensive dogs [3]; 0.1%): 30 h
SMILES: CC(C)OC(=O)CCC/C=C\C[C@@H]1[C@@H](COc2ccc(CO)cc2)[C@H](O)C[C@H]1Cl [Example 71, (Z)-7-[(1R,2S,3R,5R)-5-Chloro-3-hydroxy-2-(4-hydroxymethyl-phenoxymethyl)-cyclopentyl]-hept-5-enoic acid isopropyl ester]
inhibition in vivo at 0.1 % [1]: 16%
inhibition in vivo at 0.1 % (normotensive dogs [2]): 33%
